Experimental data as given in patent US20260116868A1 (Arcus Biosciences, Inc., priority 2023, published 2026).

target: T1, Cbl-b (Homo sapiens, UniProt Q13191); test: Cbl-b probe displacement HTRF binding assay; settings: 0.4 nM Cbl-b, 150 nM BODIPY probe
T1 construct: biotin (biotinylated protein)
Experimental: The affinity with which compounds of the present disclosure bind to Cbl-b was assessed using probe displacement homologous time resolved fluorescence (HTRF) assays. The assays used a BODIPY™ conjugated probe (Example 54 from WO 2020264398) and biotinylated Cbl-b. The assays were performed in assay buffer consisting of 20 mM Hepes, 150 mM NaCl, 0.01% Triton X-100, 0.5 mM TCEP, 0.01% BSA. On the day of the assay, a 20 point, 1:2 master serial dilution of each compound was prepared in DMSO to span a final concentration range of […] to 0 nM. Two hundred nanoliters of diluted compound was added to each well of a 384-well plate. Fifteen microliters of biotinylated- Cbl-b resuspended in assay buffer were added to each well and the plate incubated for 60 minutes at room temperature prior to addition of 5 μL of BODIPY™ probe in assay buffer. Final assay conditions included 0.4 nM of Cbl-b and 150 nM of BODIPY™ probe. After a further 15 minutes of incubation at room temperature, 5 μl of Streptavidin-Terbium cryptate reagent at 5-fold final concentration was added to each well of the 384-well plate. Binding of a probe to Cbl-b results in an increase of HTRF signal. HTRF signal was measured by Envision plate reader, while competition of a compound of the present disclosure with probe results in a decrease of signal. Percentage maximum activity in each test well was calculated based on DMSO (maximum activity, 0% displacement) and no protein control wells (baseline activity, 100% displacement). Binding affinity was determined from a dose response curve fitted using a standard four parameter fit equation. See Table 7 for data for compounds (Cbl-b Binding (IC50)).

T1 sequence (Q13191 whole entry, species assumed): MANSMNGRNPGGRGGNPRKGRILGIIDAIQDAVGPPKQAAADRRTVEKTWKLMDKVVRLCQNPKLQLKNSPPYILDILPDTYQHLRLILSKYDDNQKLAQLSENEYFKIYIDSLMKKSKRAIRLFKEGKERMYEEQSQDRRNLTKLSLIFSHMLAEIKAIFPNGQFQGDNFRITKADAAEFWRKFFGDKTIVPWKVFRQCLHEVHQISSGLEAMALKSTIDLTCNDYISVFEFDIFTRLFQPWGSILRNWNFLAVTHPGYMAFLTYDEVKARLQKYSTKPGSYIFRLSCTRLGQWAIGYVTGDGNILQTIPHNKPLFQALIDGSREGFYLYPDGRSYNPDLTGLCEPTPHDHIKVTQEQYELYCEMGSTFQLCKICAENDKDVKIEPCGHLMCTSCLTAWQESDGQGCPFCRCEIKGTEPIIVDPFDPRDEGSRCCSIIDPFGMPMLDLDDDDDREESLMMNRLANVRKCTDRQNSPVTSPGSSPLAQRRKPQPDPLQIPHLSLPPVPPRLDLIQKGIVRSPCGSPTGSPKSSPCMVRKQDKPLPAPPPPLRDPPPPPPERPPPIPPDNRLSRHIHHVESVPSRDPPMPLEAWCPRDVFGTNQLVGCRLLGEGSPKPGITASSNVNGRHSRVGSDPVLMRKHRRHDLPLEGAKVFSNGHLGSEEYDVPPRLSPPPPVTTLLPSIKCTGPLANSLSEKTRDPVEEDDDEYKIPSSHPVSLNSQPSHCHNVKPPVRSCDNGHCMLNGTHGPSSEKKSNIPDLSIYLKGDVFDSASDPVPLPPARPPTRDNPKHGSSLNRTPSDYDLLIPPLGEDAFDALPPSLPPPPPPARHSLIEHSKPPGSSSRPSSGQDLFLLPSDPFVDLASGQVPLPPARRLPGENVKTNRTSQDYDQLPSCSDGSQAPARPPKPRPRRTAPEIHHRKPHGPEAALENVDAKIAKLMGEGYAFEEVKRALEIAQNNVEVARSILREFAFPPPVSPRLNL

IC50 [nM]	Structure (SMILES)
< 100	N#Cc1ccc(-c2cc(NC(=O)c3cc(CNC[C@@H]4CCCO4)cn(C4CC4)c3=O)nc(OCF)c2)c(C(=O)N2CC(F)(F)C2)c1 [Example 344]
< 100	C[C@H](NCc1cc(C(=O)Nc2cc(-c3ccc(C#N)cc3C(=O)N3CC(F)(F)C3)cc(OCC(F)F)n2)c(=O)n(C2CC2)c1)C1CCC1 [Example 130, N-(4-{4-cyano-2-[(3,3-difluoro-1-azetidinyl)carbonyl]phenyl}-6-(2,2-difluoroethoxy)-2-pyridyl)-5-{[(S)-1-cyclobutylethylamino]methyl}-1-cyclopropyl-2-oxo-1,2-dihydronicotinamide]
< 100	COc1ccc(-c2cc(NC(=O)c3cc(CNC[C@@H]4CCCO4)cn(C4CC4)c3=O)nc(C3CC3)c2)c(C(=O)N2CC(F)C2)c1 [Example 288]
< 100	CC(C)Oc1cc(-c2ccc(F)cc2C(=O)N2CC(F)(F)C2)cc(NC(=O)c2cc(CNC[C@@H]3CCCO3)cn(C3CC3)c2=O)n1 [Example 138, N-(4-{2-[(3,3-difluoro-1-azetidinyl)carbonyl]-4-fluorophenyl}-6-isopropoxy-2-pyridyl)-1-cyclopropyl-2-oxo-5-[({[(S)-perhydro-2-furyl]methyl}amino)methyl]-1,2-dihydronicotinamide]
< 100	CO[C@@H](C)[C@H](C)NCc1cc(C(=O)Nc2cc(-c3ccc(OC(F)F)cc3C(=O)N3CC(F)(F)C3)cc(OC(C)C)n2)c(=O)n(C)c1 [Example 116, N-(4-{2-[(3,3-difluoro-1-azetidinyl)carbonyl]-4-difluoromethoxyphenyl}-6-isopropoxy-2-pyridyl)-5-{[(1S,2S)-2-methoxy-1-methylpropylamino]methyl}-1-methyl-2-oxo-1,2-dihydronicotinamide]
< 100	C[C@H](NCc1cc(C(=O)Nc2cc(-c3c(F)cc(C#N)cc3C(=O)N3CC(F)(F)C3)cc(C3CC3)n2)c(=O)n(C)c1)C1CC1 [Example 236]
< 100	CO[C@@H](C)CNCc1cc(C(=O)Nc2cc(-c3ccc(Cl)cc3C(=O)N3CC(F)(F)C3)cc(NC(C)C)n2)c(=O)n(C)c1 [Example 169]
< 100	CO[C@@H](C)CNCc1cc(C(=O)Nc2cc(-c3ccc(OC(F)F)cc3C(=O)N3CC(F)(F)C3)cc(C3CC3)n2)c(=O)n(C)c1 [Example 176]
< 100	CCOc1cc(-c2c(F)cc(Cl)cc2C(=O)N2CC(F)(F)C2)cc(NC(=O)c2cc(CNC[C@H](C)OC)cn(C3CC3)c2=O)n1 [Example 199]
< 100	CO[C@@H](C)CNCc1cc(C(=O)Nc2cc(-c3ccc(Cl)cc3C(=O)N3CC(C#N)C3)cc(C3CC3)n2)c(=O)n(C2CC2)c1 [Example 155, N-(4-{4-Chloro-2-[(3-cyano-1-azetidinyl)carbonyl]phenyl}-6-cyclopropyl-2-pyridyl)-1-cyclopropyl-5-{[(S)-2-methoxypropylamino]methyl}-2-oxo-1,2-dihydronicotinamide]
< 100	COc1ccc(-c2cc(NC(=O)c3cc(CNC[C@H](C)OC)cn(C4CC4)c3=O)nc(C3CC3)c2)c(C(=O)N2CC(F)(F)C2)c1 [Example 150, N-(6-Cyclopropyl-4-{2-[(3,3-difluoro-1-azetidinyl)carbonyl]-4-methoxyphenyl}-2-pyridyl)-1-cyclopropyl-5-{[(S)-2-methoxypropylamino]methyl}-2-oxo-1,2-dihydronicotinamide]
< 100	CO[C@@H](C)CNCc1cc(C(=O)Nc2cc(-c3ccc(Cl)cc3C(=O)N3CC(F)(F)C3)cc(OCC(F)(F)F)n2)c(=O)n(C2CC2)c1 [Example 163]
< 100	CC(C)CNCc1cc(C(=O)Nc2cc(-c3ccc(C#N)cc3C(=O)N3CC(F)(F)C3)cc(OC(C)C)n2)c(=O)n(C)c1 [Example 211]
< 100	COc1ccc(-c2cc(NC(=O)c3cc(CN[C@@H](C)C4CCC4)cn(C4CC4)c3=O)nc(OC(C)C)c2)c(C(=O)N2CC(F)(F)C2)c1 [Example 276]
< 100	CC(C)[C@H](C)NCc1cc(C(=O)Nc2cc(-c3ccc(Cl)cc3C(=O)N3CC(F)(F)C3)cc(C3CC3)n2)c(=O)n(C2CC2)c1 [Example 395]
< 100	COC[C@H](C)NCc1cc(C(=O)Nc2cc(-c3ccc(Cl)cc3C(=O)N3CC(F)(F)C3)cc(C3CC3)n2)c(=O)n(C2CC2)c1 [Example 372]
< 100	CO[C@@H](C)CNCc1cc(C(=O)Nc2cc(-c3c(F)cc(C#N)cc3C(=O)N3CC(F)(F)C3)cc(OC(C)C)n2)c(=O)n(C2CC2)c1 [Example 127, N-(4-{4-cyano-2-[(3,3-difluoro-1-azetidinyl)carbonyl]-6-fluorophenyl}-6-isopropoxy-2-pyridyl)-1-cyclopropyl-5-{[(S)-2-methoxypropylamino]methyl}-2-oxo-1,2-dihydronicotinamide]
< 100	CC(C)Oc1cc(-c2ccc(C#N)cc2C(=O)N2CC(F)(F)C2)cc(NC(=O)c2cc(CNC(C)C3CC3)cn(C3CC3)c2=O)n1 (stereo in doubt) [Example 140, N-(4-{4-cyano-2-[(3,3-difluoro-1-azetidinyl)carbonyl]phenyl}-6-isopropoxy-2-pyridyl)-1-cyclopropyl-5-{[(S)-1-cyclopropylethylamino]methyl}-2-oxo-1,2-dihydronicotinamide]
< 100	CO[C@@H](C)CNCc1cc(C(=O)Nc2cc(-c3ccc(F)cc3C(=O)N3CC(F)(F)C3)cc(C3CC3)c2)c(=O)n(C2CC2)c1 [Example 396]
< 100	N#Cc1ccc(-c2cc(NC(=O)c3cc(CNCCC(F)F)cn(C4CC4)c3=O)nc(C3CC3)c2)c(C(=O)N2CC(F)(F)C2)c1 [Example 381]

IC50 [nM]	Structure (SMILES)
< 100	CCNc1cc(-c2ccc(Cl)cc2C(=O)N2CC(F)(F)C2)cc(NC(=O)c2cc(CNCC(C)C)cn(C)c2=O)n1 [Example 184]
< 100	CCNc1cc(-c2ccc(Cl)cc2C(=O)N2CC(F)C2)cc(NC(=O)c2cc(CNC[C@H](C)OC)cn(C3CC3)c2=O)n1 [Example 245]
< 100	CO[C@@H](C)CNCc1cc(C(=O)Nc2cc(-c3ccc(OC(F)F)cc3C(=O)N3CC(F)(F)C3)cc(NC(C)C)n2)c(=O)n(C2CC2)c1 [Example 332]
< 100	CCn1cc(CNC[C@@H]2CCCO2)cc(C(=O)Nc2cc(-c3ccc(C#N)cc3C(=O)N3CC(F)(F)C3)cc(C3CC3)n2)c1=O [Example 186]
< 100	CC(C)Oc1cc(-c2ccc(C#N)cc2C(=O)N2CC(F)(F)C2)cc(NC(=O)c2cc(CNC[C@@H]3COCCO3)cn(C3CC3)c2=O)n1 [Example 371]
< 100	C[C@@H](CC(F)(F)F)NCc1cc(C(=O)Nc2cc(-c3ccc(C#N)cc3C(=O)N3CC(F)(F)C3)cc(C3CC3)n2)c(=O)n(C2CC2)c1 [Example 243]
< 100	CO[C@@H](C)CNCc1cc(C(=O)Nc2cc(-c3ccc(OC(F)F)cc3C(=O)N3CC(F)(F)C3)cc(OC(C)C)n2)c(=O)n(C2CC2)c1 [Example 197]
< 100	CO[C@@H](C)CNCc1cc(C(=O)Nc2cc(-c3ccc(C#N)cc3C(=O)N3CCC3)cc(C3CC3)n2)c(=O)n(C2CC2)c1 [Example 364]
< 100	C[C@H](NCc1cc(C(=O)Nc2cc(-c3ccc(C#N)cc3C(=O)N3CC(F)(F)C3)cc(C3CC3)n2)c(=O)n(CC(F)(F)F)c1)C1CC1 [Example 188]
< 100	CCOc1cc(-c2ccc(OC(F)F)cc2C(=O)N2CC(F)C2)cc(NC(=O)c2cc(CN[C@@H](C)C3CCC3)cn(C3CC3)c2=O)n1 [Example 247]
< 100	CCNc1cc(-c2ccc(OC(F)F)cc2C(=O)N2CC(F)(F)C2)cc(NC(=O)c2cc(CNC[C@H](C)OC)cn(C3CC3)c2=O)n1 [Example 330]
< 100	CC(C)CCNCc1cc(C(=O)Nc2cc(-c3ccc(Cl)cc3C(=O)N3CC(F)(F)C3)cc(C3CC3)n2)c(=O)n(C2CC2)c1 [Example 410]
< 100	CCOc1cc(-c2ccc(F)cc2C(=O)N2CC(F)(F)C2)cc(NC(=O)c2cc(CNC[C@H](C)OC)cn(C3CC3)c2=O)n1 [Example 373]
< 100	COCCNCc1cc(C(=O)Nc2cc(-c3ccc(C#N)cc3C(=O)N3CC(F)(F)C3)cc(C3CC3)n2)c(=O)n(CC(F)(F)F)c1 [Example 194]
< 100	COC[C@H](C)NCc1cc(C(=O)Nc2cc(-c3ccc(C#N)cc3C(=O)N3CC(F)(F)C3)cc(C3CC3)n2)c(=O)n(C)c1 [Example 171]
< 100	CO[C@@H](C)CNCc1cc(C(=O)Nc2cc(-c3c(F)cc(C#N)cc3C(=O)N3CC(F)(F)C3)cc(OC(C)C)n2)c(=O)n(C)c1 [Example 235]
< 100	C[C@H](NCc1cc(C(=O)Nc2cc(-c3ccc(C#N)cc3C(=O)N3CC(F)(F)C3)cc(C3CC3)n2)c(=O)n(C)c1)C1CCC1 [Example 167]
< 100	CO[C@@H](C)CNCc1cc(C(=O)Nc2cc(-c3c(F)cc(C#N)cc3C(=O)N3CC(F)(F)C3)cc(C3CC3)n2)c(=O)n(C2CC2)c1 [Example 224]
< 100	CO[C@@H](C)CNCc1cc(C(=O)Nc2cc(-c3ccc(OC(F)F)cc3C(=O)N3CC(F)(F)C3)cc(Cl)n2)c(=O)n(C2CC2)c1 [Example 149, N-(6-chloro-4-{2-[(3,3-difluoro-1-azetidinyl)carbonyl]-4-difluoromethoxyphenyl}-2-pyridyl)-1-cyclopropyl-5-{[(S)-2-methoxypropylamino]methyl}-2-oxo-1,2-dihydronicotinamide]
